# Measurements: US20100197657A1, “2-ARYL OR HETEROARYL INDOLE DERIVATIVES” (priority 2007, published 2010)
# Assays:
# human ASIC3 = biological target: T1, human ASIC3 (Homo sapiens, UniProt Q9UHC3); assay: In vitro assay for ASIC activity, whole-cell patch clamp, hASIC3 cell line; assay type: cell-based; conditions: for inhibition at 10 µM: percent inhibition vs. baseline current, read-out: levels of inhibition of acid-evoked ASIC current; for inhibition of human ASIC3 current with increasing concentrations (FIG. 1): increasing concentrations of compound; for inhibition of inward current evoked by pH5.5 in the hASIC3 cell line: pre-application of 300 nM; for block of inward current evoked by pH5.5 in the hASIC3 cell line: pre-application of 10 μM
# T1 construct: expressed in transfected cells; host or cells: HEK293
# T1 sequence (Q9UHC3 1-531): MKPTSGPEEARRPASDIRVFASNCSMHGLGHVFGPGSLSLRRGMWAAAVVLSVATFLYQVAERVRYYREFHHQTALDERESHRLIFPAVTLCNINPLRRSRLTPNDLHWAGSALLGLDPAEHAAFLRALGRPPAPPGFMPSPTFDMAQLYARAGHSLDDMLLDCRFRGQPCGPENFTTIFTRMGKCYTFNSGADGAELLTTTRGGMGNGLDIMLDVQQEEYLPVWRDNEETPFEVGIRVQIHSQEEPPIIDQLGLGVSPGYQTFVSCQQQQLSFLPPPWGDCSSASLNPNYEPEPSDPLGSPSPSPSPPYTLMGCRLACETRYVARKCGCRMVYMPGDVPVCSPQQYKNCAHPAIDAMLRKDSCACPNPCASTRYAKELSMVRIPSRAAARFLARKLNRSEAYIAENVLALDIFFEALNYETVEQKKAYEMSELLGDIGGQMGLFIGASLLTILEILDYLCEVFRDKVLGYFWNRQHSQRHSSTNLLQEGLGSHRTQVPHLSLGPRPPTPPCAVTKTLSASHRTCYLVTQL
# Method: (§1) Cell Preparation: Human embryonic kidney cells (HEK293) stably expressing the human ASIC ion channel, are grown to 70-90% confluence in T75 cell culture flasks. Cells are lifted by removing the growth media and incubating with 3 ml of warmed (37° C.) 50/50 Trypsin/Dulbecco's Solution (GIBCO, USA) for 4-6 minutes. 7 ml of pH7.4_HBS (see Solutions and Drugs) is then added to block Trypsin activity. The cell suspension is placed into a 10 ml centrifuge tube and centrifuged for 1 minute @ 150×G. After centrifugation, the supernatant is aspirated and the cell pellet is re-suspended in 2-5 ml of pH7.4_HBS for a final cell density of ˜0.6×10^6 cells/ml. For whole-cell patch clamp, approximately 1000 cells are placed in a recording chamber containing standard bath solution for electrophysiological recording.
# Solutions and Drugs: The intracellular solution contains (mM): 119 K-gluconate, 15 KCl, 3.2 MgCl2, 5 EGTA, 5 HEPES, 5 K2ATP, pH 7.3. The standard bath solution (pH7.4_HBS) contains (mM): 150 NaCl, 5 KCl, 2 CaCl2, 1 MgCl2, 10 HEPES, 12 Dextrose, pH 7.4. The acid-activation bath solution (pH5.5_MBS) contains (mM): 150 NaCl, 5 KCl, 2 CaCl2, 1 MgCl2, 10 MES, 12 Dextrose, pH 5.5. Test compounds were prepared as 2 or 10 mM stock solutions in DMSO and diluted in either pH7.4_HBS or pH5.5_MBS to final concentration.
# Electrophysiological recording: Patch clamp recording pipettes were pulled from borosilicate glass and typically had 2-4 MOhm resistances. Whole cell currents were recorded with a patch clamp amplifier (Multiclamp 700B, Axon Instruments Inc). Holding and test potential was −60 mV. Control and compound solutions perfused the vicinity of the cell with flow controlled by computer-operated solenoid valves. 10-90% solution exchange typically took <20 ms. After establishment of whole cell configuration, cells were perfused with pH7.4_HBS. Baseline ASIC current was determined by application of pH5.5_MBS at two minute intervals. After a stable ASIC current was determined, inhibition of acid evoked current was determined by multiple applications of increasing concentrations (3-fold dilution) of compound. Inhibition of current was expressed as percent inhibition vs. baseline current. A minimum of three independent determinations at each concentration of compound was used for each data point. IC50s were determined using the Hill Equation.
# ASIC = conditions: cited from earlier work; for inhibition of ASIC current: Psalmotoxin-1 selective for ASIC1, APETx2 selective for ASIC3
# human ASIC1 = biological target: T2, human ASIC1 (Homo sapiens, UniProt P78348); assay: In vitro assay for ASIC activity, whole-cell patch clamp, hASIC1 cell line; assay type: cell-based
# T2 construct: expressed in transfected cells; host or cells: HEK293
# T2 sequence (P78348 1-528): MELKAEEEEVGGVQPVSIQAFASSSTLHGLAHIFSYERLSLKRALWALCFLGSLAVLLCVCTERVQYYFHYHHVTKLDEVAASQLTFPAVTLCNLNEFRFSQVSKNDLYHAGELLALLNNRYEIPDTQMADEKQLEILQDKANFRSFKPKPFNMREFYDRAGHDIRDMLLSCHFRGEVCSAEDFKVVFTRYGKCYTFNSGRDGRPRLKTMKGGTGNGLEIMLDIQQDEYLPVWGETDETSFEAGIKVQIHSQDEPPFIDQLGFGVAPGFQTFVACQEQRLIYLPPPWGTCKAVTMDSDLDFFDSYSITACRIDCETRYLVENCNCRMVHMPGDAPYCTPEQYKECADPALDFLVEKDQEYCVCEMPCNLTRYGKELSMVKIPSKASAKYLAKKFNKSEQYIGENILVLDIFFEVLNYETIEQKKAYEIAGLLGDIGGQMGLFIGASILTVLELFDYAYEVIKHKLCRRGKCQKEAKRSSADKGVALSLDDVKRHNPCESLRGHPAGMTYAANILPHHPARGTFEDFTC
# Method: as §1, with “recording. […]” for “recording.”
# Electrophysiological recording: Patch clamp recording pipettes were pulled from borosilicate glass and typically had 2-4 MOhm resistances. Whole cell currents were recorded with a patch clamp amplifier (Multiclamp 700B, Axon Instruments Inc). […] After a stable ASIC current was determined, inhibition of acid evoked current was determined by multiple applications of increasing concentrations (3-fold dilution) of compound. Inhibition of current was expressed as percent inhibition vs. baseline current. […] IC50s were determined using the Hill Equation.
molecule,measurement,setting,value
"NCc1ccc2[nH]c(-c3cc(Cl)nc(Cl)c3)cc2c1 [compound 50, 1-[2-(2,6-Dichloropyridin-4-yl)-1H-indol-5-yl]methanamine]",inhibition at 10 µM,human ASIC3,> 20%
"N=C(Nc1ccccc1)c1ccc2[nH]c(-c3cc(Cl)cc(Cl)c3)cc2c1 [compound 21, 2-(3,5-dichlorophenyl)-N-phenyl-1H-indole-5-carboximidamide]",inhibition at 10 µM,human ASIC3,> 20%
N=C(N)c1ccc2[nH]c(-c3cc(Br)cc(Br)c3)cc2c1 [EXAMPLE 4],inhibition of human ASIC3 current with increasing concentrations (FIG. 1),human ASIC3,dose dependent inhibition
same,inhibition of inward current evoked by pH5.5 in the hASIC3 cell line,human ASIC3,inhibited the proton-evoked current
N=C(N)c1ccc2[nH]c(-c3cccc(CO)c3)cc2c1 [EXAMPLE 2],block of inward current evoked by pH5.5 in the hASIC3 cell line,human ASIC3,did not block the proton-evoked current
"NCc1ccc2[nH]c(-c3ccccc3)c(CN)c2c1 [compound 28, (2-Phenyl-1H-indole-3,5-diyl)dimethanamine]",inhibition at 10 µM,human ASIC3,> 20%
APETx2,inhibition of ASIC current,ASIC,inhibit ASIC current at nM concentrations
CC(C)C1c2cc(C3CC3c3ccc4cc(C(=N)N)ccc4c3)ccc2CCN1C (stereo not shown) [A-317567],increase in potency vs. amiloride,ASIC; in vivo and in vitro assays,> 10 fold
"Psalmotoxin-1 (EDCIPKWKGCVNRHGDCCEGLECWKRRRSFEVCVPKTPKT; Pi-theraphotoxin-Pc1a; UniProt P60514 1-40, looked up)",inhibition of ASIC current,ASIC,inhibit ASIC current at nM concentrations
"N=C(N)c1ccc2[nH]c(-c3cc(Cl)cc(Cl)c3)cc2c1 [EXAMPLE 1, 2-(3,5-Dichlorophenyl)-1H-indole-5-carboximidamide]",inhibition of proton-evoked current in HEK cells expressing human ASIC3 (FIG. 2),"human ASIC3; HEK cells, human ASIC3",inhibits proton-evoked current
same,inhibition at 10 µM,human ASIC3,> 20%
same,inhibition of human ASIC3 current with increasing concentrations (FIG. 1),human ASIC3,dose dependent inhibition
same,inhibition of inward current evoked by pH5.5 in the hASIC3 cell line,human ASIC3,inhibits the majority of the proton-evoked current
same,inhibition of proton-evoked current in HEK cells expressing human ASIC1 (FIG. 2),"human ASIC1; HEK cells, human ASIC1",inhibits proton-evoked current
same,inhibition of inward current evoked by pH6.5 in the hASIC1 cell line,"human ASIC1; pre-application of 300 nM, pH6.5",inhibits a large fraction of this current
N=C(N)c1ccc2[nH]c(-c3cc(Cl)cc(Br)c3)cc2c1 [EXAMPLE 3],block of inward current evoked by pH5.5 in the hASIC3 cell line,human ASIC3,blocked the proton-evoked current
